In ChEMBL document CHEMBL1649134, “Occurrence of efflux mechanism and cephalosporinase variant in a population of Enterobacter aerogenes and Klebsiella pneumoniae isolates producing extended-spectrum beta-lactamases” (2009):
Converted amounts (≈) assume the structure as drawn.

Legend:
Type in all cases: functional
Klebsiella aerogenes [1] = assay: Antimicrobial activity against multidrug resistant Enterobacter aerogenes isolate 6 by broth dilution method
Klebsiella pneumoniae [2] = assay: Antimicrobial activity against multidrug resistant Klebsiella pneumoniae isolate 1 by broth dilution method
Klebsiella aerogenes [3] = assay: Antimicrobial activity against multidrug resistant Enterobacter aerogenes isolate 10 by broth dilution method
Klebsiella pneumoniae [4] = assay: Antimicrobial activity against multidrug resistant Klebsiella pneumoniae isolate 4 by broth dilution method in presence of 26.3 mg/L efflux pump inhibitor phenylalanine-arginine-beta-naphthylamide
Klebsiella aerogenes [5] = assay: Antimicrobial activity against multidrug resistant Enterobacter aerogenes isolate 23 by broth dilution method
Klebsiella aerogenes [6] = assay: Antimicrobial activity against multidrug resistant Enterobacter aerogenes isolate 17 by broth dilution method
Klebsiella pneumoniae [7] = assay: Antimicrobial activity against multidrug resistant Klebsiella pneumoniae isolate 11 by broth dilution method in presence of 26.3 mg/L efflux pump inhibitor phenylalanine-arginine-beta-naphthylamide
Klebsiella aerogenes [8] = assay: Antimicrobial activity against multidrug resistant Enterobacter aerogenes isolate 1 by broth dilution method
Klebsiella aerogenes [9] = assay: Antimicrobial activity against multidrug resistant Enterobacter aerogenes isolate 11 by broth dilution method in presence of 26.3 mg/L efflux pump inhibitor phenylalanine-arginine-beta-naphthylamide
Klebsiella aerogenes [10] = assay: Antimicrobial activity against multidrug resistant Enterobacter aerogenes isolate 6 by broth dilution method in presence of 26.3 mg/L efflux pump inhibitor phenylalanine-arginine-beta-naphthylamide
Klebsiella pneumoniae [11] = assay: Antimicrobial activity against multidrug resistant Klebsiella pneumoniae ATCC 11296 by broth dilution method in presence of 26.3 mg/L efflux pump inhibitor phenylalanine-arginine-beta-naphthylamide
Klebsiella aerogenes [12] = assay: Antimicrobial activity against multidrug resistant Enterobacter aerogenes isolate 22 by broth dilution method
Klebsiella aerogenes [13] = assay: Antimicrobial activity against multidrug resistant Enterobacter aerogenes isolate 22 by broth dilution method in presence of 26.3 mg/L efflux pump inhibitor phenylalanine-arginine-beta-naphthylamide
Klebsiella aerogenes [14] = assay: Antimicrobial activity against multidrug resistant Enterobacter aerogenes isolate 24 by broth dilution method
Klebsiella pneumoniae [15] = assay: Antimicrobial activity against multidrug resistant Klebsiella pneumoniae isolate 15 by broth dilution method
Klebsiella aerogenes [16] = assay: Antimicrobial activity against multidrug resistant Enterobacter aerogenes isolate 2 by broth dilution method
Klebsiella aerogenes [17] = assay: Antimicrobial activity against multidrug resistant Enterobacter aerogenes isolate 27 by broth dilution method in presence of 26.3 mg/L efflux pump inhibitor phenylalanine-arginine-beta-naphthylamide
Klebsiella aerogenes [18] = assay: Antimicrobial activity against multidrug resistant Enterobacter aerogenes isolate 12 by broth dilution method in presence of 26.3 mg/L efflux pump inhibitor phenylalanine-arginine-beta-naphthylamide
Klebsiella pneumoniae [19] = assay: Antimicrobial activity against multidrug resistant Klebsiella pneumoniae isolate 9 by broth dilution method
Klebsiella pneumoniae [20] = assay: Antimicrobial activity against multidrug resistant Klebsiella pneumoniae isolate 9 by broth dilution method in presence of 26.3 mg/L efflux pump inhibitor phenylalanine-arginine-beta-naphthylamide
Klebsiella aerogenes [21] = assay: Antimicrobial activity against multidrug resistant Enterobacter aerogenes isolate 20 by broth dilution method in presence of 26.3 mg/L efflux pump inhibitor phenylalanine-arginine-beta-naphthylamide
Klebsiella aerogenes [22] = assay: Antimicrobial activity against multidrug resistant Enterobacter aerogenes isolate 8 by broth dilution method in presence of 26.3 mg/L efflux pump inhibitor phenylalanine-arginine-beta-naphthylamide
Klebsiella pneumoniae [23] = assay: Antimicrobial activity against multidrug resistant Klebsiella pneumoniae isolate 7 by broth dilution method in presence of 26.3 mg/L efflux pump inhibitor phenylalanine-arginine-beta-naphthylamide
Klebsiella pneumoniae [24] = assay: Antimicrobial activity against multidrug resistant Klebsiella pneumoniae isolate 10 by broth dilution method in presence of 26.3 mg/L efflux pump inhibitor phenylalanine-arginine-beta-naphthylamide
Klebsiella pneumoniae [25] = assay: Antimicrobial activity against multidrug resistant Klebsiella pneumoniae isolate 2 by broth dilution method in presence of 26.3 mg/L efflux pump inhibitor phenylalanine-arginine-beta-naphthylamide
Klebsiella aerogenes [26] = assay: Antimicrobial activity against multidrug resistant Enterobacter aerogenes isolate 4 by broth dilution method in presence of 26.3 mg/L efflux pump inhibitor phenylalanine-arginine-beta-naphthylamide
Klebsiella pneumoniae [27] = assay: Antimicrobial activity against multidrug resistant Klebsiella pneumoniae isolate 3 by broth dilution method
Klebsiella aerogenes [28] = assay: Antimicrobial activity against multidrug resistant Enterobacter aerogenes isolate 27 by broth dilution method
Klebsiella aerogenes [29] = assay: Antimicrobial activity against multidrug resistant Enterobacter aerogenes isolate 11 by broth dilution method
Klebsiella aerogenes [30] = assay: Antimicrobial activity against multidrug resistant Enterobacter aerogenes isolate 20 by broth dilution method
Klebsiella aerogenes [31] = assay: Antimicrobial activity against multidrug resistant Enterobacter aerogenes isolate 17 by broth dilution method in presence of 26.3 mg/L efflux pump inhibitor phenylalanine-arginine-beta-naphthylamide
Klebsiella aerogenes [32] = assay: Antimicrobial activity against multidrug resistant Enterobacter aerogenes isolate 7 by broth dilution method in presence of 26.3 mg/L efflux pump inhibitor phenylalanine-arginine-beta-naphthylamide
Klebsiella aerogenes [33] = assay: Antimicrobial activity against multidrug resistant Enterobacter aerogenes isolate 21 by broth dilution method in presence of 26.3 mg/L efflux pump inhibitor phenylalanine-arginine-beta-naphthylamide
Klebsiella aerogenes [34] = assay: Antimicrobial activity against multidrug resistant Enterobacter aerogenes isolate 24 by broth dilution method in presence of 26.3 mg/L efflux pump inhibitor phenylalanine-arginine-beta-naphthylamide
Klebsiella aerogenes [35] = assay: Antimicrobial activity against multidrug resistant Enterobacter aerogenes isolate 19 by broth dilution method in presence of 26.3 mg/L efflux pump inhibitor phenylalanine-arginine-beta-naphthylamide
Klebsiella pneumoniae [36] = assay: Antimicrobial activity against multidrug resistant Klebsiella pneumoniae isolate 7 by broth dilution method
Klebsiella aerogenes [37] = assay: Antimicrobial activity against multidrug resistant Enterobacter aerogenes isolate 19 by broth dilution method
Klebsiella aerogenes [38] = assay: Antimicrobial activity against multidrug resistant Enterobacter aerogenes isolate 8 by broth dilution method
Klebsiella pneumoniae [39] = assay: Antimicrobial activity against multidrug resistant Klebsiella pneumoniae isolate 6 by broth dilution method in presence of 26.3 mg/L efflux pump inhibitor phenylalanine-arginine-beta-naphthylamide
Klebsiella aerogenes [40] = assay: Antimicrobial activity against multidrug resistant Enterobacter aerogenes isolate 13 by broth dilution method
Klebsiella pneumoniae [41] = assay: Antimicrobial activity against multidrug resistant Klebsiella pneumoniae isolate 2 by broth dilution method
Klebsiella pneumoniae [42] = assay: Antimicrobial activity against multidrug resistant Klebsiella pneumoniae isolate 13 by broth dilution method
Klebsiella pneumoniae [43] = assay: Antimicrobial activity against multidrug resistant Klebsiella pneumoniae isolate 12 by broth dilution method in presence of 26.3 mg/L efflux pump inhibitor phenylalanine-arginine-beta-naphthylamide
Klebsiella aerogenes [44] = assay: Antimicrobial activity against multidrug resistant Enterobacter aerogenes isolate 4 by broth dilution method
Klebsiella pneumoniae [45] = assay: Antimicrobial activity against multidrug resistant Klebsiella pneumoniae isolate 13 by broth dilution method in presence of 26.3 mg/L efflux pump inhibitor phenylalanine-arginine-beta-naphthylamide
Klebsiella pneumoniae [46] = assay: Antimicrobial activity against multidrug resistant Klebsiella pneumoniae isolate 15 by broth dilution method in presence of 26.3 mg/L efflux pump inhibitor phenylalanine-arginine-beta-naphthylamide
Klebsiella pneumoniae [47] = assay: Antimicrobial activity against multidrug resistant Klebsiella pneumoniae ATCC 11296 by broth dilution method
Klebsiella pneumoniae [48] = assay: Antimicrobial activity against multidrug resistant Klebsiella pneumoniae isolate 8 by broth dilution method
Klebsiella pneumoniae [49] = assay: Antimicrobial activity against multidrug resistant Klebsiella pneumoniae isolate 14 by broth dilution method
Klebsiella pneumoniae [50] = assay: Antimicrobial activity against multidrug resistant Klebsiella pneumoniae isolate 16 by broth dilution method

O=C(N[C@H](CO)[C@H](O)c1ccc([N+](=O)[O-])cc1)C(Cl)Cl [CHLORAMPHENICOL]
MIC (Klebsiella aerogenes [1]): 256 µg/mL (≈ 792 µM)
MIC (Klebsiella pneumoniae [2]): 8 µg/mL (≈ 24.8 µM)
MIC (Klebsiella aerogenes [3]): 1020 µg/mL (≈ 3170 µM)
MIC (Klebsiella pneumoniae [4]): 2 µg/mL
MIC (Klebsiella aerogenes [5]): 512 µg/mL (≈ 1580 µM)
MIC (Klebsiella aerogenes [6]): 1020 µg/mL (≈ 3170 µM)
MIC (Klebsiella pneumoniae [7]): 4 µg/mL
MIC (Klebsiella aerogenes [8]): 1020 µg/mL (≈ 3170 µM)
MIC (Klebsiella aerogenes [9]): 64 µg/mL
MIC (Klebsiella aerogenes [10]): 4 µg/mL
MIC (Klebsiella pneumoniae [11]): 2 µg/mL
MIC (Klebsiella aerogenes [12]): 1020 µg/mL (≈ 3170 µM)
MIC (Klebsiella aerogenes [13]): 128 µg/mL
MIC (Klebsiella aerogenes [14]): 512 µg/mL (≈ 1580 µM)
MIC (Klebsiella pneumoniae [15]): 8 µg/mL (≈ 24.8 µM)
MIC (Klebsiella aerogenes [16]): 512 µg/mL (≈ 1580 µM)
MIC (Klebsiella aerogenes [17]): 128 µg/mL
MIC (Klebsiella aerogenes [18]): 128 µg/mL
MIC (Klebsiella pneumoniae [19]): 64 µg/mL (≈ 198 µM)
MIC (Klebsiella pneumoniae [20]): 8 µg/mL
MIC (Klebsiella aerogenes [21]): 64 µg/mL
MIC (Klebsiella aerogenes [22]): 64 µg/mL
MIC (Klebsiella pneumoniae [23]): 2 µg/mL
MIC (Klebsiella pneumoniae [24]): 2 µg/mL
MIC (Klebsiella pneumoniae [25]): 64 µg/mL
MIC (Klebsiella aerogenes [26]): 128 µg/mL
MIC (Klebsiella pneumoniae [27]): 4 µg/mL (≈ 12.4 µM)
MIC (Klebsiella aerogenes [28]): 1020 µg/mL (≈ 3170 µM)
MIC (Klebsiella aerogenes [29]): 512 µg/mL (≈ 1580 µM)
MIC (Klebsiella aerogenes [30]): 1020 µg/mL (≈ 3170 µM)
MIC (Klebsiella aerogenes [31]): 64 µg/mL
MIC (Klebsiella aerogenes [32]): 128 µg/mL
MIC (Klebsiella aerogenes [33]): 128 µg/mL
MIC (Klebsiella aerogenes [34]): 64 µg/mL
MIC (Klebsiella aerogenes [35]): 64 µg/mL
MIC (Klebsiella pneumoniae [36]): 32 µg/mL (≈ 99 µM)
MIC (Klebsiella aerogenes [37]): 1020 µg/mL (≈ 3170 µM)
MIC (Klebsiella aerogenes [38]): 256 µg/mL (≈ 792 µM)
MIC (Klebsiella pneumoniae [39]): 2 µg/mL
MIC (Klebsiella aerogenes [40]): 1020 µg/mL (≈ 3170 µM)
MIC (Klebsiella pneumoniae [41]): 256 µg/mL (≈ 792 µM)
MIC (Klebsiella pneumoniae [42]): 128 µg/mL (≈ 396 µM)
MIC (Klebsiella pneumoniae [43]): 2 µg/mL
MIC (Klebsiella aerogenes [44]): 1020 µg/mL (≈ 3170 µM)
MIC (Klebsiella pneumoniae [45]): 4 µg/mL
MIC (Klebsiella pneumoniae [46]): 2 µg/mL
MIC (Klebsiella pneumoniae [47]): 4 µg/mL (≈ 12.4 µM)
MIC (Klebsiella pneumoniae [48]): 32 µg/mL (≈ 99 µM)

CCn1cc(C(=O)O)c(=O)c2cc(F)c(N3CCNCC3)cc21 [NORFLOXACIN]
MIC (Klebsiella aerogenes [1]): 64 µg/mL (≈ 200 µM)
MIC (Klebsiella pneumoniae [2]): 2 µg/mL (≈ 6.26 µM)
MIC (Klebsiella aerogenes [3]): 256 µg/mL (≈ 802 µM)
MIC (Klebsiella pneumoniae [4]): 128 µg/mL
MIC (Klebsiella aerogenes [5]): 512 µg/mL (≈ 1600 µM)
MIC (Klebsiella aerogenes [6]): > 512 µg/mL
MIC (Klebsiella pneumoniae [7]): 64 µg/mL
MIC (Klebsiella aerogenes [8]): 256 µg/mL (≈ 802 µM)
MIC (Klebsiella aerogenes [9]): 256 µg/mL
MIC (Klebsiella pneumoniae [49]): 8 µg/mL (≈ 25.1 µM)
MIC (Klebsiella aerogenes [10]): 2 µg/mL
MIC (Klebsiella pneumoniae [11]): 0.125 µg/mL
MIC (Klebsiella aerogenes [12]): 256 µg/mL (≈ 802 µM)
MIC (Klebsiella aerogenes [13]): 128 µg/mL
MIC (Klebsiella aerogenes [14]): 512 µg/mL (≈ 1600 µM)
MIC (Klebsiella pneumoniae [15]): 256 µg/mL (≈ 802 µM)
MIC (Klebsiella aerogenes [16]): 256 µg/mL (≈ 802 µM)
MIC (Klebsiella aerogenes [17]): 128 µg/mL
MIC (Klebsiella aerogenes [18]): 512 µg/mL
MIC (Klebsiella pneumoniae [19]): 1 µg/mL (≈ 3.13 µM)
MIC (Klebsiella pneumoniae [20]): ≤ 0.06 µg/mL
MIC (Klebsiella pneumoniae [50]): 1 µg/mL (≈ 3.13 µM)
MIC (Klebsiella aerogenes [21]): 128 µg/mL
MIC (Klebsiella aerogenes [22]): 128 µg/mL
MIC (Klebsiella pneumoniae [23]): 0.25 µg/mL
MIC (Klebsiella pneumoniae [24]): 128 µg/mL
MIC (Klebsiella pneumoniae [25]): 2 µg/mL
MIC (Klebsiella aerogenes [26]): 512 µg/mL
MIC (Klebsiella pneumoniae [27]): 128 µg/mL (≈ 401 µM)
MIC (Klebsiella aerogenes [28]): 256 µg/mL (≈ 802 µM)
MIC (Klebsiella aerogenes [29]): 512 µg/mL (≈ 1600 µM)
MIC (Klebsiella aerogenes [30]): 512 µg/mL (≈ 1600 µM)
MIC (Klebsiella aerogenes [31]): 128 µg/mL
MIC (Klebsiella aerogenes [32]): 256 µg/mL
MIC (Klebsiella aerogenes [33]): 128 µg/mL
MIC (Klebsiella aerogenes [34]): 128 µg/mL
MIC (Klebsiella aerogenes [35]): 128 µg/mL
MIC (Klebsiella pneumoniae [36]): 0.25 µg/mL (≈ 0.783 µM)
MIC (Klebsiella aerogenes [37]): 128 µg/mL (≈ 401 µM)
MIC (Klebsiella aerogenes [38]): 128 µg/mL (≈ 401 µM)
MIC (Klebsiella pneumoniae [39]): 0.25 µg/mL
MIC (Klebsiella aerogenes [40]): 512 µg/mL (≈ 1600 µM)
MIC (Klebsiella pneumoniae [41]): 4 µg/mL (≈ 12.5 µM)
MIC (Klebsiella pneumoniae [42]): > 256 µg/mL
MIC (Klebsiella pneumoniae [43]): 0.25 µg/mL
MIC (Klebsiella aerogenes [44]): 512 µg/mL (≈ 1600 µM)
MIC (Klebsiella pneumoniae [45]): 32 µg/mL
MIC (Klebsiella pneumoniae [46]): 256 µg/mL
MIC (Klebsiella pneumoniae [47]): 0.5 µg/mL (≈ 1.57 µM)
MIC (Klebsiella pneumoniae [48]): 2 µg/mL (≈ 6.26 µM)
